Values belong to the molecule of their own block, whether it stands above or below them.
Experiments:
[1] = [3H]vinblastine binding to LR73 membranes that do not express P-gp; design: species or system Chinese hamster; details: data not shown
Source text: (§1) The two murine proteins share 84% amino acid identity, although the linker region which contains several sites for phosphorylation by protein kinase C (PKC) is the least conserved region between the two isoforms (Devault and Gros, 1990). […] P-gp1a is expressed at high levels in the intestine, liver and testis, and also in the lung and brain where it is thought to contribute to the blood-brain barrier (Schinkel et al, 1994). In contrast, P-gp1b is expressed in tissues associated with steroid biosynthesis and distribution, such as the adrenal gland and ovary, and is induced specifically in the uterus during pregnancy (Arceci et al, 1988; Trezise et al, 1992). The steroid hormone progesterone increases during pregnancy, and the mdr1b gene, but not the mdr1a gene, is regulated by a progesterone response element in its promoter (Piekarz et al, 1993). Direct evidence that the P-gp1b isoform can transport steroids comes from the observation that disruption of the mdr1b gene in mouse adrenal cells is associated with decreased adrenocorticotropic hormone-stimulated steroid secre- tion (Altuvia et al, 1993). […] More specifically, progesterone inhibits vinblastine binding and azidopine photolabelling of both of the mouse P-gp isoforms in vitro (Yang et al, 1990), showing that both isoforms are capable of interacting with steroids. […]

[2] = biological target: T1, P-gp1a (Mus musculus, UniProt P21447); assay: Association kinetics of [3H]vinblastine binding to LR73-1a membranes
T1 construct: expressed in transfected cells; host or cells: Chinese hamster ovary LR73 cells (LR73-1a), plasma membrane fraction
Source text: (§2) The two murine proteins share 84% amino acid identity, although the linker region which contains several sites for phosphorylation by protein kinase C (PKC) is the least conserved region between the two isoforms (Devault and Gros, 1990). […] P-gp1a is expressed at high levels in the intestine, liver and testis, and also in the lung and brain where it is thought to contribute to the blood-brain barrier (Schinkel et al, 1994). In contrast, P-gp1b is expressed in tissues associated with steroid biosynthesis and distribution, such as the adrenal gland and ovary, and is induced specifically in the uterus during pregnancy (Arceci et al, 1988; Trezise et al, 1992). The steroid hormone progesterone increases during pregnancy, and the mdr1b gene, but not the mdr1a gene, is regulated by a progesterone response element in its promoter (Piekarz et al, 1993). Direct evidence that the P-gp1b isoform can transport steroids comes from the observation that disruption of the mdr1b gene in mouse adrenal cells is associated with decreased adrenocorticotropic hormone-stimulated steroid secre- tion (Altuvia et al, 1993). […] More specifically, progesterone inhibits vinblastine binding and azidopine photolabelling of both of the mouse P-gp isoforms in vitro (Yang et al, 1990), showing that both isoforms are capable of interacting with steroids. However, if the distinct tissue-specific patterns of expression of P-gp1a and P-gp1b reflect differences in function related to steroid transport, it is important to show directly that the two proteins are functionally distinct. […] Summary The gene encoding the multidrug resistance P-glycoprotein (P-gp) is duplicated in rodent species and the functional basis for this remains unresolved. […] In the present study possible biochemical differences between the isoforms were directly investigated at the level of drug interaction. […]

[3] = biological target: T2, P-gp1b (Mus musculus, UniProt P06795); assay: Equilibrium (saturation) binding of [3H]vinblastine to LR73-1b plasma membranes, rapid filtration
T2 construct: expressed in transfected cells; host or cells: Chinese hamster ovary LR73 cells (LR73-1b), plasma membrane fraction
Source text: as §2

[4] = biological target: T1, P-gp1a; assay: Equilibrium (saturation) binding of [3H]vinblastine to LR73-1a plasma membranes, rapid filtration; details: LR73-1a membranes, mean s.e.m.
Source text: as §1

[5] = biological target: T2, P-gp1b; assay: Association kinetics of [3H]vinblastine binding to LR73-1b membranes
Source text: as §2

[6] = tested on: drug-sensitive cells (LR73); assay: Vinblastine sensitivity of drug-sensitive cells in culture; assay type: cell-based, Chinese hamster; details: Cricetulus griseus
Source text: as §1

[7] = tested on: Drug-resistant lines (LR73-1a, LR73-1b); assay: Maximal vinblastine resistance level of drug-resistant lines in culture; assay type: cell-based, Chinese hamster; details: Cricetulus griseus, read-out: EC50, maximal resistance level of the cells
Source text: as §1

[8] = biological target: T2, P-gp1b; assay: Displacement of equilibrium [3H]vinblastine binding, LR73-1b membranes
Source text: as §1

[9] = biological target: T1, P-gp1a; assay: Displacement of equilibrium [3H]vinblastine binding, LR73-1a membranes
Source text: as §1

[10] = biological target: P-gp; assay: Sensitivity of [3H]vinblastine binding to DMSO; design: species or system mouse
Source text: as §1

[11] = tested on: P-gp; assay: Binding of [3H]progesterone to P-gp; design: species or system mouse; details: data not shown
Source text: as §1

T1 sequence (P21447 whole entry): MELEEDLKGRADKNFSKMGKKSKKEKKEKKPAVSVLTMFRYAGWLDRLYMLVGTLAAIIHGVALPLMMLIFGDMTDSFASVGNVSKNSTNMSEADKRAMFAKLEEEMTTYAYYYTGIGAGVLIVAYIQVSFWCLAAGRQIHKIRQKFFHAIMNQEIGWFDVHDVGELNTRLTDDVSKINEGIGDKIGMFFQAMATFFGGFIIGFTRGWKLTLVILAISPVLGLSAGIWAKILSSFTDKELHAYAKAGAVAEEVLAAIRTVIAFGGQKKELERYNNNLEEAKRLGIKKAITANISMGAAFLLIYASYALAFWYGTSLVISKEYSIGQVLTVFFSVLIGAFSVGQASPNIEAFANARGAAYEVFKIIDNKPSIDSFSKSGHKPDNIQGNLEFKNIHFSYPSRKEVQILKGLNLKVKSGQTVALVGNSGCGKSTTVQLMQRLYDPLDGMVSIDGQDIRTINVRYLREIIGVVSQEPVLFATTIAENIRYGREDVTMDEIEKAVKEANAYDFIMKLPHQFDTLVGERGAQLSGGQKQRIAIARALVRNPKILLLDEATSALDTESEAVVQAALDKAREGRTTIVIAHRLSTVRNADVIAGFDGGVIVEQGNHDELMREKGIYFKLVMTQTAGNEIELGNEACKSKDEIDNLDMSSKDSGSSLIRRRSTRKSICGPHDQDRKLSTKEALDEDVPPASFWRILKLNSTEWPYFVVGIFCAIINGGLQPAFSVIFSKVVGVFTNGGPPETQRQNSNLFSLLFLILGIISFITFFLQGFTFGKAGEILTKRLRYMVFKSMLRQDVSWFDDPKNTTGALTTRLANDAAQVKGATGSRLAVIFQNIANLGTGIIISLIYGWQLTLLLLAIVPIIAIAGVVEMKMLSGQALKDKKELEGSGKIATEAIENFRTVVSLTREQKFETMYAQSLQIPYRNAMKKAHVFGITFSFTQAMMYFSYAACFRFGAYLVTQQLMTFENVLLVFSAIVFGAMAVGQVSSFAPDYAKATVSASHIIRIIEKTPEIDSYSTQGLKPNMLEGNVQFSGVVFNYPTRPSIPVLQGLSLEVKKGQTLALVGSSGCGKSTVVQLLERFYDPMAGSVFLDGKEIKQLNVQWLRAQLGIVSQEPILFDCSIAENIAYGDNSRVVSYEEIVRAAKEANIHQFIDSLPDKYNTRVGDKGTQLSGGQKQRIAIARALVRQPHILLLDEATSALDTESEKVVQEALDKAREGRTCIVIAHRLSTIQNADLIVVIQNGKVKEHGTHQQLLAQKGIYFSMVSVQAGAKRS
T2 sequence (P06795 whole entry): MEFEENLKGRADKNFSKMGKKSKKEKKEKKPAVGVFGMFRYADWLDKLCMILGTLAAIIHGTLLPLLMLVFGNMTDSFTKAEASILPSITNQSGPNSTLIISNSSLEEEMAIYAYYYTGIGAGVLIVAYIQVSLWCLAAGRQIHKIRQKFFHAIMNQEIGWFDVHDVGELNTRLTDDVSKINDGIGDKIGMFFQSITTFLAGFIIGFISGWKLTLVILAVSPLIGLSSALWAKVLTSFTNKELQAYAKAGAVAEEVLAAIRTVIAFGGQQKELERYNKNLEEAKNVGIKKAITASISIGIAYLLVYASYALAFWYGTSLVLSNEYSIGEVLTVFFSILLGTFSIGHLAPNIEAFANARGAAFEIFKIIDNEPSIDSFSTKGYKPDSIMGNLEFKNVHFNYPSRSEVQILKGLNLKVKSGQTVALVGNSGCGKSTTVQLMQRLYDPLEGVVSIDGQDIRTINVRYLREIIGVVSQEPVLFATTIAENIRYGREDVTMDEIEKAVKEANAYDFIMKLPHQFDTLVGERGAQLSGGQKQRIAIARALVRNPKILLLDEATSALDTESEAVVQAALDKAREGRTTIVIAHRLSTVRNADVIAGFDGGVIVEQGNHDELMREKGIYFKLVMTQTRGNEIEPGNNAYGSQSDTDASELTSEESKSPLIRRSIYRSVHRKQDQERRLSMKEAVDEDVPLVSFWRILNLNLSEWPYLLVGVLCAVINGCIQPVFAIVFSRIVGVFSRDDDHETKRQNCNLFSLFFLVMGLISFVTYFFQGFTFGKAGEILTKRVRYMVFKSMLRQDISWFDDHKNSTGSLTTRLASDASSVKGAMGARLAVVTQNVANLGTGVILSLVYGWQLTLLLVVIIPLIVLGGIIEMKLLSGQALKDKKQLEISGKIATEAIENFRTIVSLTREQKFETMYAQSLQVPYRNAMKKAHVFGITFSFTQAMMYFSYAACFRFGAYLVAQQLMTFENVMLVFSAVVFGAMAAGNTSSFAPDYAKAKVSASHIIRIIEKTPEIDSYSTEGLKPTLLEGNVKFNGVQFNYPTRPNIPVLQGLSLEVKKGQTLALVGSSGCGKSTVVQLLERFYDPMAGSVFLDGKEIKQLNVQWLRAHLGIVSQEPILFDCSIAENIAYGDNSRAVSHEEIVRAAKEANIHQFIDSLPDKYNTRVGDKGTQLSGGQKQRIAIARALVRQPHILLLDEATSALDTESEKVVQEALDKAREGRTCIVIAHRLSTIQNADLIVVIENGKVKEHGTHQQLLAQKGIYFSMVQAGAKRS

SMILES: CC[C@]1(O)C[C@@H]2CN(CCc3c([nH]c4ccccc34)[C@@](C(=O)OC)(c3cc4c(cc3OC)N(C)[C@H]3[C@@](O)(C(=O)OC)[C@H](OC(C)=O)[C@]5(CC)C=CCN6CC[C@]43[C@@H]65)C2)C1 [[3H]vinblastine]
specific binding [1]: did not bind specifically | association rate constant (k+1) ([2]; LR73-1a membranes, 15-20 nM [3H]vinblastine): 0.002 0.0005 min-1 nM-1 | rate constant of [3H]vinblastine dissociation (k-1) ([2]; LR73-1a membranes, derived from Figure 3): 0.07 0.02 min-1 | Kd ([2]; P-gp1a, read-out: Estimate of dissociation constant (Kd = k-1/k+1) using the kinetic data): 35 nM | Bmax ([3]; Figure 2, single representative experiment): 8.6 1.4 pmol mg-1 | Kd ([3]; LR73-1b membranes, equilibrium, mean s.e.m., read-out: Kd, affinity of [3H]vinblastine binding): 30.7 nM | Bmax, density of specific binding sites ([3]; LR73-1b membranes, mean s.e.m.): 14.1 2.9 pmol mg-1 | Kd ([4]; equilibrium, read-out: Kd, affinity of [3H]vinblastine binding): 32.9 nM | Bmax, density of specific binding sites [4]: 24.5 2.9 pmol mg-1 | association rate constant (k+1) ([5]; LR73-1b membranes, 15-20 nM [3H]vinblastine): 0.002 0.0006 min-1 nM-1 | rate constant of [3H]vinblastine dissociation (k-1) ([5]; LR73-1b membranes, derived from Figure 3): 0.11 0.02 min-1 | Kd ([5]; P-gp1b, read-out: Estimate of dissociation constant (Kd = k-1/k+1) using the kinetic data): 55 nM

SMILES: CC[C@]1(O)C[C@@H]2CN(CCc3c([nH]c4ccccc34)[C@@](C(=O)OC)(c3cc4c(cc3OC)N(C)[C@H]3[C@@](O)(C(=O)OC)[C@H](OC(C)=O)[C@]5(CC)C=CCN6CC[C@]43[C@@H]65)C2)C1 [vinblastine sulphate, Vinblastine sulphate]
EC50 [6]: 0.01 µg/mL | EC50 [7]: 0.2 to 0.25 µg/mL

SMILES: CC(=O)[C@H]1CC[C@H]2[C@@H]3CCC4=CC(=O)CC[C@]4(C)[C@H]3CC[C@]12C [progesterone]
Ki [8]: 1800 nM | Ki [9]: 1900 nM

EC50 on [3H]vinblastine binding [10]: 2.5 % (v/v)
SMILES: C[S+](C)[O-] [DMSO, dimethylsulphoxide]

SMILES: CC(=O)[C@H]1CC[C@H]2[C@@H]3CCC4=CC(=O)CC[C@]4(C)[C@H]3CC[C@]12C [[3H]progesterone]
binding characteristics to P-gp [11]: poor affinity, low specific binding

Source: paper PMC2374293, “The equilibrium and kinetic drug binding properties of the mouse P-gp1a and P-gp1b P-glycoproteins are similar” (British Journal of Cancer, 1999)
